Results taken from patent EP4105215A1, “CO-CRYSTAL OF APIXABAN WITH A CARBOXYLIC ACID” (University of Limerick, priority 2021, dated 2022).

What was measured:
[1] = Dissolution / solubility in PBS 6.8 analysed by HPLC; type: physicochemical; conditions: PBS 6.8 at 37°C, triplicate
Description: 25 mg equivalent of APX was sieved to 75-100µm using standard-mesh sieve and the resulting slurry was added to 500 mL phosphate buffer solution (PBS) 6.8 at 37°C stirring at 100 rpm. 1mL aliquots were taken at 1 3, 5, 10, 15, 30, 60, 120, 240, 480, 720 and 1440 minutes. Each aliquot filtered through a 0.45 µm Whattmann syringe filter. 500 µL of filtered aliquot and 500 µL of methanol were pipetted into a vial and injected to HPLC. All dissolution experiments for APX and cocrystals were carried in triplicates.
The dissolution aliquots were analysed using a Shimadzu (LC-20A) HPLC instrument with a Gemini® C18 (250 x 4.6 x 5 µm) column. The wavelength was set to 235nm with an injection volume of 10 µL and a flow rate of 1 mL/min with the oven set at 40°C.
Physicochemical properties such as PBS 6.8 solubility were analysed by high performance liquid chromatography (HPLC). […] Table 4: Solubility of APX and respective cocrystals in PBS 6.8 at 37°C

[2] = single 10 mg dose; cited from earlier work

Acute, T= 60 mins Conc ([1]; 60 mins): 0.0241 mg/mL
Chronic, T= 720mins Conc ([1]; 720 mins): 0.0303 mg/mL
SMILES: COc1ccc(-n2nc(C(N)=O)c3c2C(=O)N(c2ccc(N4CCCCC4=O)cc2)CC3)cc1 [APX, 1-(4-methoxyphenyl)-7-oxo-6-(4-(2-oxopiperidin-1-yl)phenyl)-4,5,6,7-tetrahydro-1H-pyrazolo[3,4-c]pyridine-3-carboxamide]
oral bioavailability [2]: about 50%
